Measurements: PubChem BioAssay AID330 (DTP/NCI, 2004)
“And” between values parts separate entries of the source, which are not always exact repeats. Identical values can stand only once. Inconclusive results and toxic doses are left out.

Test system: P388 leukemia ip, CD2F1 mice, survival T/C
Experiment: NCI In Vivo Anticancer Drug Screen. Data for tumor model P388 Leukemia (intraperitoneal) in CD2F1 (CDF1) mice
Settings: endpoint: median survival time, higher = longer survival
How it was run: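 Mice carrying the transplanted tumor received test compound or vehicle. Survival was recorded in each group, and the value is the treated-group measurement divided by that of the vehicle-treated control group.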

[1] = dose: 50.0 mg/kg/injection, schedule: Q01DX005 (ip), vehicle: saline with Tween-80
[2] = dose: 100.0 mg/kg/injection, schedule: Q01DX005 (ip), vehicle: saline with Tween-80
[3] = dose: 200.0 mg/kg/injection, schedule: Q01DX005 (ip), vehicle: saline with Tween-80
[4] = dose: 60.0 mg/kg/injection, schedule: Q01DX005 (ip), vehicle: saline with Tween-80
[5] = dose: 50.0 mg/kg/injection, schedule: Q01DX009 (ip), vehicle: saline
[6] = dose: 100.0 mg/kg/injection, schedule: Q01DX009 (ip), vehicle: saline
[7] = dose: 200.0 mg/kg/injection, schedule: Q01DX009 (ip), vehicle: saline
[8] = dose: 12.5 mg/kg/injection, schedule: Q01DX009 (ip), vehicle: Klucel (hydroxypropylcellulose) (HPC)
[9] = dose: 25.0 mg/kg/injection, schedule: Q01DX009 (ip), vehicle: Klucel (hydroxypropylcellulose) (HPC)
[10] = dose: 50.0 mg/kg/injection, schedule: Q01DX009 (ip), vehicle: Klucel (hydroxypropylcellulose) (HPC)
[11] = dose: 100.0 mg/kg/injection, schedule: Q01DX009 (ip), vehicle: Klucel (hydroxypropylcellulose) (HPC)
[12] = dose: 200.0 mg/kg/injection, schedule: Q01DX009 (ip), vehicle: Klucel (hydroxypropylcellulose) (HPC)
[13] = dose: 120.0 mg/kg/injection, schedule: Q01DX005 (ip), vehicle: saline with Tween-80
[14] = dose: 240.0 mg/kg/injection, schedule: Q01DX005 (ip), vehicle: saline with Tween-80
[15] = dose: 50.0 mg/kg/injection, schedule: Q01DX009 (ip), vehicle: saline with Tween-80
[16] = dose: 100.0 mg/kg/injection, schedule: Q01DX009 (ip), vehicle: saline with Tween-80
[17] = dose: 200.0 mg/kg/injection, schedule: Q01DX009 (ip), vehicle: saline with Tween-80

CCC/C=C/C=C/C(=O)OC1/C(=C/C(=O)OC)CC2CC(C(C)O)OC(=O)CC(O)CC3CC(OC(C)=O)C(C)(C)C(O)(CC4C/C(=C/C(=O)OC)CC(/C=C/C(C)(C)C1(O)O2)O4)O3 (stereo not drawn)
T/C (dose: 0.01 mg/kg/injection, schedule: Q01DX009 (ip), vehicle: saline + alcohol): 152 % of control | T/C (dose: 0.03 mg/kg/injection, schedule: Q01DX009 (ip), vehicle: saline + alcohol): 186 % of control | T/C (dose: 0.07 mg/kg/injection, schedule: Q01DX009 (ip), vehicle: saline + alcohol): 163 % of control and 196 % of control | T/C (dose: 0.15 mg/kg/injection, schedule: Q01DX009 (ip), vehicle: saline + alcohol): 179 % of control | T/C (dose: 18.75 micrograms/kg/injection, schedule: Q01DX009 (ip), vehicle: saline + alcohol): 175 % of control | T/C (dose: 37.5 micrograms/kg/injection, schedule: Q01DX009 (ip), vehicle: saline + alcohol): 177 % of control | T/C (dose: 75.0 micrograms/kg/injection, schedule: Q01DX009 (ip), vehicle: saline + alcohol): 177 % of control

C=C(C)C(C(=O)OC(c1ccccc1)c1ccccc1)N1C(=O)C(NC(=O)COc2ccccc2)C1SSc1nc2ccccc2s1 (stereo not drawn)
T/C [1]: 94 % of control | T/C [2]: 89 % of control | T/C [3]: 93 % of control

Cc1cccc(/C=C/C(=O)C(CN(C)C)CN(C)C)c1
T/C (dose: 6.25 mg/kg/injection, schedule: Q01DX005 (ip), vehicle: Klucel (hydroxypropylcellulose) (HPC)): 104 % of control | T/C (dose: 12.5 mg/kg/injection, schedule: Q01DX005 (ip), vehicle: Klucel (hydroxypropylcellulose) (HPC)): 100 % of control

CC1=Nc2nc(=NCCCN(C)C)nc3cccc(n23)N1
T/C (dose: 15.0 mg/kg/injection, schedule: Q01DX005 (ip), vehicle: saline with Tween-80): 99 % of control | T/C (dose: 30.0 mg/kg/injection, schedule: Q01DX005 (ip), vehicle: saline with Tween-80): 100 % of control | T/C [4]: 104 % of control and 97 % of control

CCOC(=O)CCCCCN(/C=C(\C)CN1c2c(nc(N)[nH]c2=O)NCC1CNc1ccc(C(=O)NC(CCC(=O)O)C(=O)O)cc1)C(C)=O (stereo not drawn)
T/C (dose: 50.0 mg/kg/injection, schedule: Q01DX001 (ip), vehicle: sodium bicarbonate): 99 % of control | T/C (dose: 100.0 mg/kg/injection, schedule: Q01DX001 (ip), vehicle: sodium bicarbonate): 100 % of control | T/C (dose: 200.0 mg/kg/injection, schedule: Q01DX001 (ip), vehicle: sodium bicarbonate): 100 % of control

O=C1OC(=O)C2C3C=CC(C4C=C(c5ccccc5)C43)C12 (stereo not drawn)
T/C [5]: 106 % of control | T/C [6]: 92 % of control | T/C [7]: 107 % of control

CNc1ccccc1C(=O)NNC(=O)Nc1ccccc1C(F)(F)F
T/C [1]: 98 % of control | T/C [2]: 100 % of control | T/C [3]: 111 % of control

CCN(CC)Sc1cccc([N+](=O)[O-])c1
T/C [8]: 108 % of control | T/C [9]: 118 % of control | T/C [10]: 113 % of control and 119 % of control

Cc1cc(N2C(=O)CCSC2=S)ccc1F
T/C (dose: 12.5 mg/kg/injection, schedule: Q01DX009 (ip), vehicle: saline): 101 % of control | T/C (dose: 25.0 mg/kg/injection, schedule: Q01DX009 (ip), vehicle: saline): 108 % of control | T/C [5]: 108 % of control | T/C (dose: 50.0 mg/kg/injection, schedule: Q01DX009 (ip), vehicle: suspension in saline): 91 % of control | T/C (dose: 100.0 mg/kg/injection, schedule: Q01DX009 (ip), vehicle: suspension in saline): 94 % of control | T/C (dose: 200.0 mg/kg/injection, schedule: Q01DX009 (ip), vehicle: suspension in saline): 88 % of control

C=C(C)C(=O)OCC1CO1 (stereo not drawn)
T/C (dose: 50.0 mg/kg/injection, schedule: Q01DX009 (ip), vehicle: water): 100 % of control | T/C (dose: 100.0 mg/kg/injection, schedule: Q01DX009 (ip), vehicle: water): 108 % of control | T/C (dose: 200.0 mg/kg/injection, schedule: Q01DX009 (ip), vehicle: water): 120 % of control

CCCCC(=O)/C=C/c1ccc(Cl)c(Cl)c1
T/C [10]: 98 % of control | T/C [11]: 90 % of control | T/C [12]: 95 % of control

Cc1cc(C)nc(NS(=O)(=O)c2ccc(NC(=O)c3cccnc3Nc3cccc(Cl)c3)cc2)n1
T/C [4]: 105 % of control | T/C [13]: 115 % of control | T/C [14]: 112 % of control

CC1(/C=C/c2ccccc2)NC(=O)NC1=O (stereo not drawn)
T/C [10]: 88 % of control | T/C [11]: 98 % of control | T/C [12]: 104 % of control

O=C(CCl)NC(Cc1ccsc1)C(=O)O (stereo not drawn)
T/C [5]: 93 % of control | T/C [6]: 102 % of control

CC1(C)CCc2c(cc3c(c2O)CCC(C)(C)O3)O1
T/C [4]: 109 % of control | T/C [13]: 117 % of control | T/C [14]: 100 % of control

C=CC(=NC(C)(C)C)Nc1ccc(Cl)cc1
T/C [15]: 100 % of control | T/C [16]: 94 % of control | T/C [17]: 97 % of control

O=C([Se][Se]C(=O)c1ccccc1)c1ccccc1
T/C (dose: 6.25 mg/kg/injection, schedule: Q01DX009 (ip), vehicle: saline with Tween-80): 101 % of control | T/C (dose: 12.5 mg/kg/injection, schedule: Q01DX009 (ip), vehicle: saline with Tween-80): 107 % of control | T/C (dose: 25.0 mg/kg/injection, schedule: Q01DX009 (ip), vehicle: saline with Tween-80): 107 % of control

O=C(/C=C/c1ccc([N+](=O)[O-])cc1)Cc1ccccc1
T/C (dose: 100.0 mg/kg/injection, schedule: Q04DX002 (ip), vehicle: saline): 97 % of control | T/C (dose: 200.0 mg/kg/injection, schedule: Q04DX002 (ip), vehicle: saline): 104 % of control | T/C (dose: 400.0 mg/kg/injection, schedule: Q04DX002 (ip), vehicle: saline): 100 % of control

CCCCCCCCCC#CC(=O)O
T/C [15]: 95 % of control | T/C [16]: 110 % of control | T/C [17]: 89 % of control

O=c1cc(O)n(C2=NCCN2)[nH]1
T/C (dose: 60.0 mg/kg/injection, schedule: Q01DX005 (ip), vehicle: suspension in saline): 97 % of control | T/C (dose: 120.0 mg/kg/injection, schedule: Q01DX005 (ip), vehicle: suspension in saline): 97 % of control | T/C (dose: 240.0 mg/kg/injection, schedule: Q01DX005 (ip), vehicle: suspension in saline): 105 % of control

NC(=S)N/N=C\Cn1cc([N+](=O)[O-])c(=O)[nH]c1=O
T/C (dose: 50.0 mg/kg/injection, schedule: Q01DX005 (ip), vehicle: Klucel (hydroxypropylcellulose) (HPC)): 101 % of control | T/C (dose: 100.0 mg/kg/injection, schedule: Q01DX005 (ip), vehicle: Klucel (hydroxypropylcellulose) (HPC)): 87 % of control

CC1CN(C(=O)Nc2ccc([N+](=O)[O-])cc2)CC(C)O1 (stereo not drawn)
T/C [15]: 96 % of control | T/C [16]: 87 % of control | T/C [17]: 89 % of control

CC(=O)Nc1nc(C)c(S(=O)(=O)Cl)s1
T/C [5]: 102 % of control | T/C [6]: 98 % of control | T/C [7]: 102 % of control | T/C (dose: 400.0 mg/kg/injection, schedule: Q01DX009 (ip), vehicle: saline): 94 % of control

OC(c1ccccc1)(C(F)(F)F)C(O)(c1ccccc1)C(F)(F)F (stereo not drawn)
T/C [15]: 99 % of control | T/C [16]: 104 % of control | T/C [17]: 87 % of control

COC1C2CC3C4(CCC5C6(C)CCCC53C(C14)N(C)C6)CC21CCC23C4C=C5C6=C(CCC5(CC42)C3O1)C1(C)CC(C6)CN(C)C1 (stereo not drawn)
T/C [8]: 91 % of control | T/C [9]: 94 % of control | T/C [10]: 98 % of control

COc1ccc2c(c1)CCc1c(-c3noc4c3CCc3cc(OC)ccc3-4)noc1-2
T/C (dose: 60.0 mg/kg/injection, schedule: Q01DX005 (ip), vehicle: Klucel + Tween-80): 92 % of control | T/C (dose: 120.0 mg/kg/injection, schedule: Q01DX005 (ip), vehicle: Klucel + Tween-80): 96 % of control | T/C (dose: 240.0 mg/kg/injection, schedule: Q01DX005 (ip), vehicle: Klucel + Tween-80): 100 % of control
